These results are taken from patent publication US20130157860A1, “METHOD OF CONTROLLING A WEED IN A GRAMINEOUS BIOMASS CROP” (SUMITOMO CHEMICAL COMPANY, LIMITED, priority 2011, published 2013).

Data set [1] has as its system Setaria faberi, Amaranthus retroflexus, Chenepodium album, and Stellaria media. In words: Test Example 1: pre-emergence application, herbicidal activity. The format is in vivo. The following applies: pre-emergence application to soil surface, 25 to 1000 g per 1 hectare, greenhouse, evaluated 21 days after treatment.
Data set [2] relates to switchgrass, miscanthus, giant reed, reed canarygrass, blue stem, erianthus, napier grass, and spartina. In words: Test Example 1: pre-emergence application, phytotoxicity on biomass crops. Here is the method: Pre-emergence application in switchgrass, miscanthus, giant reed, reed canarygrass, blue stem, erianthus, napier grass and spartina
A field soil is filled into a 32 cm×22 cm plastic case having a depth of 8 cm, seeds of switchgrass, miscanthus, giant reed, reed canarygrass, blue stem, erianthus, napier grass, spartina, Setaria faberi, Amaranthus retroflexus, Chenepodium album, and Stellaria media are seeded thereon, and the seeds are covered with about 0.5 cm of a soil.

For data set [3], the system named is Echinochloa crus-galli, Digitaria adscendens, Chenopodium album and Abutilon theophrasti. In words: Test Example 2: post-emergence application, herbicidal activity. Format: in vivo. Particulars: post-emergence application after 2 weeks of cultivation, 25 to 1000 g per 1 hectare, greenhouse, evaluated 21 days after treatment.
Protocol: (§1) A field soil is filled into a 32 cm×22 cm plastic case having a depth of 8 cm, seeds of switchgrass, miscanthus, giant reed, reed canarygrass, blue stem, erianthus, napier grass, spartina, Echinochloa crus-galli, Digitaria adscendens, Chenopodium album and Abutilon theophrasti are seeded thereon, and the seeds are covered with about 0.5 cm of a soil, and cultivated in a greenhouse for 2 weeks.
Data set [4] deals with switchgrass, miscanthus, giant reed, reed canarygrass, blue stem, erianthus, napier grass, and spartina. The data set is described as follows: Test Example 2: post-emergence application, phytotoxicity on biomass crops. The format is in vivo.
Protocol: as §1
Setting [5] is: pre-emergence application to soil surface, 25 to 1000 g per 1 hectare, greenhouse, evaluated 21 days after treatment.
Where [6] appears, read: post-emergence application after 2 weeks of cultivation, 25 to 1000 g per 1 hectare, greenhouse, evaluated 21 days after treatment.

As to `CC(C)N(C)S(=O)(=O)NC(=O)c1cc(-n2c(=O)cc(C(F)(F)F)n(C)c2=O)c(F)cc1Cl` [saflufenacil], the herbicidal activity entry in data set [1] and in data set [3] was “high herbicidal activity” each time. The phytotoxicity entry is on record as “without causing significant phytotoxicity” in data set [2] (setting [5]) and “without causing a significant phytotoxicity” in data set [4] (setting [6]).
Regarding `CS(=O)(=O)NC(=O)c1cc(Oc2ccc(C(F)(F)F)cc2Cl)ccc1[N+](=O)[O-]` [fomesafen], the herbicidal activity entry in data set [1] and in data set [3] was “high herbicidal activity” in each case. In data set [2] (setting [5]), the phytotoxicity entry is “without causing significant phytotoxicity”.
With `C#CCN1C(=O)COc2cc(F)c(N3C(=O)C4=C(CCCC4)C3=O)cc21` [flumioxazin], the herbicidal activity result in data set [1] and in data set [3] was “high herbicidal activity” each time. Moreover, the phytotoxicity result is given as “without causing significant phytotoxicity” in data set [2] (setting [5]) and “without causing a significant phytotoxicity” in data set [4] (setting [6]).
In the case of `Cc1nn(-c2cc(NS(C)(=O)=O)c(Cl)cc2Cl)c(=O)n1C(F)F` [sulfentrazone], the herbicidal activity result in data set [1] and in data set [3] was “high herbicidal activity” throughout. Besides, the phytotoxicity entry in data set [2] (in vivo) was “without causing significant phytotoxicity”; in data set [4] (in vivo), “without causing a significant phytotoxicity”.
For the molecule `C#CCN1C(=O)COc2cc(F)c(-n3c(=O)n(C)c(=S)n(C)c3=O)cc21` [compound represented by the formula (I)], the herbicidal activity entry in data set [1] and in data set [3] was “high herbicidal activity” each time. Further, the phytotoxicity result in data set [2] (in vivo) is “without causing significant phytotoxicity”; in data set [4] (in vivo), “without causing a significant phytotoxicity”.
Regarding `CCOc1cc(Oc2ccc(C(F)(F)F)cc2Cl)ccc1[N+](=O)[O-]` [oxyfluorfen], the herbicidal activity entry in data set [1] and in data set [3] was “high herbicidal activity” throughout. Further, the phytotoxicity entry in data set [2] (setting [5]) was “without causing significant phytotoxicity”; in data set [4] (setting [6]), “without causing a significant phytotoxicity”.
